In PubChem BioAssay AID248 (DTP/NCI, 2004):
“And” between values parts separate entries of the source, which are not always exact repeats. Equal entries are not always repeated. Inconclusive results and toxic doses are left out.

Tested on: L1210 leukemia ip in BDF1 mice, survival T/C
Assay: NCI In Vivo Anticancer Drug Screen. Data for tumor model L1210 Leukemia (intraperitoneal) in B6D2F1 (BDF1) mice
Settings: endpoint: mean survival time, higher = longer survival
Procedure, shortened: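 Tumor cells were implanted, animals were treated, and survival was followed. The result divides the treated measurement by the vehicle-control measurement.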

[1] = dose: 100.0 mg/kg/injection, schedule: Q01DX001 (ip), vehicle: saline
[2] = dose: 200.0 mg/kg/injection, schedule: Q01DX001 (ip), vehicle: saline
[3] = dose: 400.0 mg/kg/injection, schedule: Q01DX001 (ip), vehicle: saline
[4] = dose: 50.0 mg/kg/injection, schedule: Q04DX003 (ip), vehicle: saline
[5] = dose: 100.0 mg/kg/injection, schedule: Q04DX003 (ip), vehicle: Klucel (hydroxypropylcellulose) (HPC)
[6] = dose: 400.0 mg/kg/injection, schedule: Q04DX003 (ip), vehicle: Klucel (hydroxypropylcellulose) (HPC)
[7] = dose: 50.0 mg/kg/injection, schedule: Q04DX002 (ip), vehicle: Klucel (hydroxypropylcellulose) (HPC)
[8] = dose: 100.0 mg/kg/injection, schedule: Q04DX002 (ip), vehicle: Klucel (hydroxypropylcellulose) (HPC)
[9] = dose: 200.0 mg/kg/injection, schedule: Q04DX002 (ip), vehicle: Klucel (hydroxypropylcellulose) (HPC)
[10] = dose: 400.0 mg/kg/injection, schedule: Q04DX002 (ip), vehicle: Klucel (hydroxypropylcellulose) (HPC)
[11] = dose: 50.0 mg/kg/injection, schedule: Q01DX009 (ip), vehicle: saline with Tween-80
[12] = dose: 100.0 mg/kg/injection, schedule: Q01DX009 (ip), vehicle: saline with Tween-80
[13] = dose: 200.0 mg/kg/injection, schedule: Q01DX009 (ip), vehicle: saline with Tween-80
[14] = dose: 12.5 mg/kg/injection, schedule: Q04DX003 (ip), vehicle: saline
[15] = dose: 25.0 mg/kg/injection, schedule: Q04DX003 (ip), vehicle: saline

O=C(Nc1ccc(C2=NC3CCCCC3N2)cc1)c1ccc(C(=O)Nc2ccc(C3=NC4CCCCC4N3)cc2)cc1 (stereo not drawn)
T/C (dose: 15.0 mg/kg/injection, schedule: Q01DX Z (ip), vehicle: carboxymethylcellulose (CMC)): 96 % of control
T/C (dose: 30.0 mg/kg/injection, schedule: Q01DX Z (ip), vehicle: carboxymethylcellulose (CMC)): 92 % of control
T/C (dose: 60.0 mg/kg/injection, schedule: Q01DX Z (ip), vehicle: carboxymethylcellulose (CMC)): 96 % of control
T/C (dose: 120.0 mg/kg/injection, schedule: Q01DX Z (ip), vehicle: carboxymethylcellulose (CMC)): 103 % of control

CCOC(=O)CC(CC[N+](=O)[O-])C(=O)OCC (stereo not drawn)
T/C (dose: 50.0 mg/kg/injection, schedule: Q04DX002 (ip), vehicle: saline with Tween-80): 108 % of control
T/C [1]: 109 % of control
T/C (dose: 100.0 mg/kg/injection, schedule: Q04DX002 (ip), vehicle: saline with Tween-80): 89 % of control
T/C [2]: 110 % of control
T/C (dose: 200.0 mg/kg/injection, schedule: Q04DX002 (ip), vehicle: saline with Tween-80): 96 % of control
T/C [3]: 97 % of control

O=S(=O)(O)F
T/C [4]: 96 % of control
T/C [1]: 94 % of control
T/C (dose: 100.0 mg/kg/injection, schedule: Q04DX003 (ip), vehicle: saline): 89 % of control
T/C [2]: 94 % of control
T/C (dose: 200.0 mg/kg/injection, schedule: Q04DX003 (ip), vehicle: saline): 96 % of control

NCC1OC(OC2C(N)CC(N)C(OC3OC(CO)C(O)C(N)C3O)C2O)C(N)CC1O (stereo not drawn)
T/C (dose: 50.0 mg/kg/injection, schedule: Q04DX002 (ip), vehicle: saline): 114 % of control
T/C (dose: 100.0 mg/kg/injection, schedule: Q04DX002 (ip), vehicle: saline): 103 % of control
T/C (dose: 200.0 mg/kg/injection, schedule: Q04DX002 (ip), vehicle: saline): 114 % of control

OC1C=Cc2ccccc21 (stereo not drawn)
T/C (dose: 100.0 mg/kg/injection, schedule: Q04DX002 (ip), vehicle: other): 97 % of control
T/C (dose: 200.0 mg/kg/injection, schedule: Q04DX002 (ip), vehicle: other): 97 % of control

Nc1c(Cl)ncnc1NCCCCCO
T/C [5]: 100 % of control
T/C (dose: 200.0 mg/kg/injection, schedule: Q04DX003 (ip), vehicle: Klucel (hydroxypropylcellulose) (HPC)): 94 % of control
T/C [6]: 107 % of control

CCCSc1ncnc2c1ncn2COC(=O)NC
T/C [1]: 97 % of control
T/C [2]: 108 % of control
T/C [3]: 108 % of control

O=C1Nc2ccccc2C1O (stereo not drawn)
T/C [1]: 101 % of control
T/C [2]: 101 % of control
T/C [3]: 108 % of control

CCCCCCCCCN1CCCC(C)C1 (stereo not drawn)
T/C (dose: 12.5 mg/kg/injection, schedule: Q04DX002 (ip), vehicle: Klucel (hydroxypropylcellulose) (HPC)): 93 % of control
T/C (dose: 25.0 mg/kg/injection, schedule: Q04DX002 (ip), vehicle: Klucel (hydroxypropylcellulose) (HPC)): 97 % of control
T/C [7]: 101 % of control

CCOC(=O)C(N)Cc1ccc(N(CCCl)CCCl)cc1 (stereo not drawn)
T/C (dose: 0.06 mg/kg/injection, schedule: Q01DX Z (ip), vehicle: saline): 99 % of control
T/C (dose: 0.13 mg/kg/injection, schedule: Q01DX Z (ip), vehicle: saline): 124 % of control
T/C (dose: 0.5 mg/kg/injection, schedule: Q01DX Z (oral), vehicle: saline): 120 % of control
T/C (dose: 2.0 mg/kg/injection, schedule: Q01DX Z (ip), vehicle: saline): 122 % of control
T/C (dose: 4.0 mg/kg/injection, schedule: Q01DX Z (ip), vehicle: saline): 161 % of control and 190 % of control
T/C (dose: 4.0 mg/kg/injection, schedule: Q01DX Z (oral), vehicle: saline): 162 % of control and 168 % of control
T/C (dose: 6.0 mg/kg/injection, schedule: Q01DX Z (ip), vehicle: saline): 160 % of control and 164 % of control and 202 % of control
T/C (dose: 9.0 mg/kg/injection, schedule: Q01DX Z (ip), vehicle: saline): 162 % of control and 164 % of control and 172 % of control
T/C (dose: 13.5 mg/kg/injection, schedule: Q01DX Z (ip), vehicle: saline): 165 % of control
T/C (dose: 16.0 mg/kg/injection, schedule: Q01DX Z (oral), vehicle: saline): 87 % of control and 88 % of control
T/C (dose: 20.0 mg/kg/injection, schedule: Q01DX Z (ip), vehicle: saline): 97 % of control

O=C(CC(C[N+](=O)[O-])c1ccccc1)c1ccccc1 (stereo not drawn)
T/C [8]: 96 % of control
T/C [9]: 100 % of control
T/C [10]: 96 % of control

Cc1ccc(C(=O)n2c(Cl)c(C=O)c3ccccc32)cc1
T/C [7]: 94 % of control
T/C [8]: 97 % of control
T/C [9]: 94 % of control

Nc1ccccc1SC1CC(=O)N(c2cccc3ccccc23)C1=O (stereo not drawn)
T/C [5]: 89 % of control
T/C [6]: 90 % of control

NC(N)=N/N=C\c1ccccc1/C=N/N=C(N)N
T/C (dose: 15.0 mg/kg/injection, schedule: Q01DX Z (ip), vehicle: saline): 111 % of control
T/C (dose: 15.0 mg/kg/injection, schedule: Q01DX Z (oral), vehicle: saline): 116 % of control
T/C (dose: 30.0 mg/kg/injection, schedule: Q01DX Z (ip), vehicle: saline): 110 % of control
T/C (dose: 30.0 mg/kg/injection, schedule: Q01DX Z (oral), vehicle: saline): 111 % of control
T/C (dose: 60.0 mg/kg/injection, schedule: Q01DX Z (oral), vehicle: saline): 102 % of control
T/C (dose: 120.0 mg/kg/injection, schedule: Q01DX Z (oral), vehicle: saline): 111 % of control

CC(OC(=O)c1ccc([N+](=O)[O-])cc1)C(C)(C)C (stereo not drawn)
T/C [8]: 109 % of control
T/C [9]: 123 % of control
T/C [10]: 113 % of control

CC(C)(C)NC(=O)C1C2C=CC(C2)C1C(=O)NC(C)(C)C (stereo not drawn)
T/C (dose: 100.0 mg/kg/injection, schedule: Q04DX003 (ip), vehicle: saline with Tween-80): 96 % of control
T/C (dose: 200.0 mg/kg/injection, schedule: Q04DX003 (ip), vehicle: saline with Tween-80): 91 % of control
T/C (dose: 400.0 mg/kg/injection, schedule: Q04DX003 (ip), vehicle: saline with Tween-80): 91 % of control

C1CCC2(CC1)OOC1(CCCCC1)OOC1(CCCC1)OO2
T/C [11]: 104 % of control
T/C [12]: 96 % of control
T/C [13]: 110 % of control

Cc1c(-c2ccccc2)ccnc1C#N
T/C [11]: 97 % of control
T/C [12]: 102 % of control
T/C [13]: 97 % of control

c1ccc2nc(N3CCCCC3)c(N3CCCCC3)nc2c1
T/C (dose: 222.0 mg/kg/injection, schedule: Q01DX Z (ip), vehicle: methylcellulose (MC)): 108 % of control
T/C (dose: 333.0 mg/kg/injection, schedule: Q01DX Z (ip), vehicle: methylcellulose (MC)): 96 % of control
T/C (dose: 500.0 mg/kg/injection, schedule: Q01DX Z (ip), vehicle: methylcellulose (MC)): 92 % of control

CC(=O)c1ccc(NC(=O)C(F)(F)F)cc1
T/C (dose: 50.0 mg/kg/injection, schedule: Q01DX001 (ip), vehicle: carboxymethylcellulose (CMC)): 101 % of control
T/C (dose: 100.0 mg/kg/injection, schedule: Q01DX001 (ip), vehicle: carboxymethylcellulose (CMC)): 95 % of control
T/C (dose: 200.0 mg/kg/injection, schedule: Q01DX001 (ip), vehicle: carboxymethylcellulose (CMC)): 97 % of control
T/C (dose: 400.0 mg/kg/injection, schedule: Q01DX001 (ip), vehicle: carboxymethylcellulose (CMC)): 92 % of control

O=CC(CCN1CCCC1)(CCN1CCCC1)c1cccc2ccccc12
T/C [14]: 97 % of control
T/C [15]: 108 % of control
T/C [4]: 93 % of control

CNC(=O)Oc1cccc(C=O)c1
T/C (dose: 100.0 mg/kg/injection, schedule: Q01DX001 (ip), vehicle: other): 102 % of control
T/C (dose: 200.0 mg/kg/injection, schedule: Q01DX001 (ip), vehicle: other): 117 % of control
T/C (dose: 400.0 mg/kg/injection, schedule: Q01DX001 (ip), vehicle: other): 102 % of control

O=C1CCC(=O)N1C(=O)c1ccccc1
T/C (dose: 100.0 mg/kg/injection, schedule: Q01DX Z (ip), vehicle: methylcellulose (MC)): 104 % of control
T/C (dose: 150.0 mg/kg/injection, schedule: Q01DX Z (ip), vehicle: methylcellulose (MC)): 102 % of control
T/C (dose: 225.0 mg/kg/injection, schedule: Q01DX Z (ip), vehicle: methylcellulose (MC)): 95 % of control

CCN(CC)CC(=O)NCC(CCCCN1CCCC1)(c1cccc2ccccc12)C(C)C (stereo not drawn)
T/C (dose: 6.25 mg/kg/injection, schedule: Q04DX003 (ip), vehicle: saline): 104 % of control
T/C [14]: 110 % of control
T/C [15]: 93 % of control
